Experimental data from patent publication US20040138315A1 (priority 2000, published 2004).
Like-named read-outs stand apart in the source and are kept apart here.

What was measured:
[1] = test system: adenosine diphosphate-induced aggregation of platelet rich plasma (ADP receptor); experiment: Adenosine diphosphate, platelet aggregation (404010); format: cell-based, rabbit; settings: 30 μM, platelet rich plasma, rabbit
Protocol: (§1) Test compounds referred to above were evaluated for inhibition of platelet aggregation induced by adenosine diphosphate, arachidonic acid, phorbol ester and Platelet Activating Factor (PAF) at […]. The following methods were employed in this analysis, and reference compounds for the respective assays are indicated in Appendix 1:
Venous blood obtained from male or female New Zealand derived albino rabbits weighing 2.5-3 kg was mixed with one-tenth volume of trisodium citrate (0.13 M) and centrifuged at room temperature for 10 min at 220 g. Test substance (30 EM)-induced aggregation of the supernatant platelet rich plasma by 50 percent or more (>50%) more relative to 1.2 μM adenosine diphosphate control response at 37° C. as mearsured by an optical aggregometer, indicates possible ADP receptor agonist activity.
At a test substance concentration where no significant agonist activity is seen, ability to reduce the adenosine diphosphate-induced maximum non-reversible aggregation response by 50 percent or more (≧50%) was indicative of ADP receptor antagonist activity.

[2] = test system: arachidonic acid-induced aggregation of platelet rich plasma; experiment: Arachidonic acid, platelet aggregation (412510); format: cell-based, rabbit; settings: 30 μM, platelet rich plasma, rabbit
Protocol: as §1
Venous blood obtained from male or female New Zealand derived albino rabbits weighting 2.5-3 kg was mixed with one-tenth volume of trisodeium citrate (0.13M) and centrifuged at room temperature for 10 min at 220 g. Test substance (30 μM)-induced aggregation of the supernatant platelet rich plasma by 50 percent or more (≧50%) within 5 min, relative to 100 μM arachidonic acid response at 37° C. as measured by an optical aggregometer indicates possible agonist activity.
At a test substance concentration where no significant agonist activity is seen, ability to reduce the arachidonic acid-induced maximum non-reversible aggregation response by 50 percent or more (>50%) was indicative of antagonist activity.

[3] = test system: PMA-induced aggregation of platelet rich plasma (phorbol ester receptor); experiment: Phorbol ester, platelet aggregation (461500); format: cell-based, rabbit; settings: 30 μM, platelet rich plasma, rabbit
Protocol: as §1
(§2) Venous blood obtained from male or female New Zealand derived albino rabbits weighing 2.5-3 kg is mixed with one-tenth volume of trisodium citrate (0.13 M) and centrifuged at room temperature for 10 min at 220 g. Test substance (30 μM)-induced aggregation of the supernatant platelet rich plasma by 50 percent or more (≧50%) within 5 min, relative to control phorbol myristate acetate (PMA, 0.5 μM) response at 37° C. as measured by an optical aggregometer, indicates possible phorbol ester receptor agonist activity.
At a test substance concentration where no significant agonist activity is seen, ability to reduce the PMA (0.5 μM)-induced maximum non-reversible aggregation response by 50 percent or more (>50%) indicates phorbol ester receptor antagonist activity.

[4] = test system: PAF-acether-induced aggregation of platelet rich plasma (PAF receptor); experiment: PAF, platelet aggregation (463010); format: cell-based, rabbit; settings: 30 μM, platelet rich plasma, rabbit
Protocol: as §1
as §2, with “temperture” for “temperature”, “Substance” for “substance”, “5 nM platelet activating factor-acether (PAF-acether)” for “phorbol myristate acetate (PMA, 0.5 μM)”, “37[…]” for “37° C.”, “PAF” for “phorbol ester”
At a test substance concentration where no significant agonist activity is seen, ability to reduce the PAF-acether-induced maximum non-reversible aggregation response by 50 percent or more (≧50%) indicates PAF receptor antagonist activity.

cyclooxygenase COX-1 = target: T1, cyclooxygenase COX-1 (Homo sapiens, UniProt P23219); experiment: Cyclooxygenase COX-1 inhibition in human platelets, PGE2 EIA (116010); format: cell-based; settings: screened at 10 μM
T1 construct: host or cells: human platelets
T1 sequence (P23219 24-599): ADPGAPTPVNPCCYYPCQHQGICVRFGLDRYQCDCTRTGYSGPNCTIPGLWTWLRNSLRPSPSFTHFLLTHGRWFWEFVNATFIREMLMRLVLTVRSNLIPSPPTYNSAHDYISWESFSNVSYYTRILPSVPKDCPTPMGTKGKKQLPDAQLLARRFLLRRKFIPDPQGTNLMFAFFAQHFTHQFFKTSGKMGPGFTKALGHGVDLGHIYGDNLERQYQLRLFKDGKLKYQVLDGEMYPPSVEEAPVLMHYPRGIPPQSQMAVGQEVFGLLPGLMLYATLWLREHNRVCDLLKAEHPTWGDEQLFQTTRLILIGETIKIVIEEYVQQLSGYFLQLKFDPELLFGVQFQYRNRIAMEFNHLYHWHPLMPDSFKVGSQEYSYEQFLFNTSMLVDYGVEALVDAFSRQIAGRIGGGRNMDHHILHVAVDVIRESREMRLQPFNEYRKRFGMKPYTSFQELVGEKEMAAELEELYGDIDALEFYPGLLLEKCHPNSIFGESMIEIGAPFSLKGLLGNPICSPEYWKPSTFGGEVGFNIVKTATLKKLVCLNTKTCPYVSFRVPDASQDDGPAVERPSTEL
Protocol: (§3) In these assays, in addition to the designations set forth above, IG-05 refers to resorcinol and IG-06 refers to orcinol.
To assess COX-1 inhibition, test compound and/or vehicle was incubated with human platelets (5×10^7/well) for 15 minutes at5 37° C. Calcium ionophore A23187 (10 μM) was added to induce the arachidonic acid cascade. After another 15 minutes incubation at 37° C., PGE2 levels in the supernatant were quantiated using the Amersham EIA kit. Compounds were screened at 10 μM.

[5] = target: T2, cyclooxygenase-2 (human recombinant) (Homo sapiens, UniProt P35354); experiment: Cyclooxygenase COX-2 inhibition, recombinant enzyme, PGE2 EIA (118010); format: biochemical; settings: screened at 10 μM
T2 construct: 118010; host or cells: Spodoptera frugiperda (insect cells)
T2 sequence (P35354 18-604): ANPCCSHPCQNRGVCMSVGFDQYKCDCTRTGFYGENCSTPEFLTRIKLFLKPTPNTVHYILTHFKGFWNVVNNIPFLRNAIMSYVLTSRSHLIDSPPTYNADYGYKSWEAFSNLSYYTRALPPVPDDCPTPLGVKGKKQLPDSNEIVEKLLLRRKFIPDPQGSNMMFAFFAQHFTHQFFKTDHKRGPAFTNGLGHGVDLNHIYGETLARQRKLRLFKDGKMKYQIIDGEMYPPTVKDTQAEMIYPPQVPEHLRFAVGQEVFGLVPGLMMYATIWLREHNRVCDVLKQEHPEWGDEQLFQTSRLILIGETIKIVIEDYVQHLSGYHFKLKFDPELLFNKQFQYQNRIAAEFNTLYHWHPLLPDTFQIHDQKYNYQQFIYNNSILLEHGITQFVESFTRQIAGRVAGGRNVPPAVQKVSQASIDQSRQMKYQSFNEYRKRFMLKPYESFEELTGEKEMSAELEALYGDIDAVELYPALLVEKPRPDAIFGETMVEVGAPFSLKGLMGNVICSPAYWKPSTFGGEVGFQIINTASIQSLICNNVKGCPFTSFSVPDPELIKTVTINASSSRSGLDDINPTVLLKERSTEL
Protocol: as §3
Following centrifugation, substrate conversion to PGE2 was measured by an Amersham EIA kit. Compounds are screened at 10 μM.

thromboxane A2 synthase [6] = target: T3, thromboxane A2 synthase (Oryctolagus cuniculus, UniProt G1TAZ9); experiment: Thromboxane A2 synthase inhibition, TXB2 radioimmunoassay (194000); format: biochemical, rabbit
T3 sequence (G1TAZ9 1-530): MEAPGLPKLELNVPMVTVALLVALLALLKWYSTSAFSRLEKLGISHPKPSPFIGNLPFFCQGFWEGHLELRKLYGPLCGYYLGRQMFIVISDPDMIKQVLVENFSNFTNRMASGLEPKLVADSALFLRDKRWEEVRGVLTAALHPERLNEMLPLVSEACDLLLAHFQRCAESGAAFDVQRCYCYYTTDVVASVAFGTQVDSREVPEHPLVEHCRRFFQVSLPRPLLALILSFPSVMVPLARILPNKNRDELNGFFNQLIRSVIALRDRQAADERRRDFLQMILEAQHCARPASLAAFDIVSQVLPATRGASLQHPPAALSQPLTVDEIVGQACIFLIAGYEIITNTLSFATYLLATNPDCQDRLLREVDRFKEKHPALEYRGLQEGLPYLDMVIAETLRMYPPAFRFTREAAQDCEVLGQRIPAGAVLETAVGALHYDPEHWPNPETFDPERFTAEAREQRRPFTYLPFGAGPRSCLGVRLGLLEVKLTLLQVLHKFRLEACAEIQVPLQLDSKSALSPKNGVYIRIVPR
Protocol: Test compounds (IG-1 through IG-11) were evaluated for their ability to inhibit cyclooxygenase COX-1, cyclooxygenase COX-2, and thromboxane synthase. In these assays, in addition to the designations set forth above, IG-05 refers to resorcinol and IG-06 refers to orcinol.
To assess Thromboxane A2 synthase, thromboxane A2 synthase isolated from a microsomal fraction of rabbit platelets by conventional centrifugation was used. The test compound and/or vehicle was incubated with 1:200 dilution of thromboxane A2 synthase and 5 ng prostaglandin G2 as substrate in Tris buffer pH 7.5 for 30 minutes at 37° C. The thromboxane A2 formed is immediately converted to thromboxane B2, which was quantitated by a radioimmunoassay. Compounds are screened at 100 μM.

thromboxane A2 synthase [7] = target: T3, thromboxane A2 synthase; settings: reference compound, historical; read-out: Historical IC50, Thromboxane Synthetase; cited from earlier work

Compound | ANT. (antagonist response), ADP platelet aggregation [1] [%] | AG. (agonist response), ADP platelet aggregation ([1]; relative to […] ADP) [%] | ANT. (antagonist response), arachidonic acid platelet aggregation [2] [%] | AG. (agonist response), arachidonic acid platelet aggregation ([2]; relative to 100 μM arachidonic acid) [%] | ANT. (antagonist response), phorbol ester platelet aggregation [3] [%] | AG. (agonist response), phorbol ester platelet aggregation ([3]; relative to PMA 0.5 μM) [%] | ANT. (antagonist response), PAF platelet aggregation [4] [%] | AG. (agonist response), PAF platelet aggregation ([4]; relative to 5 nM PAF-acether) [%] | COX-1 inhibition (in words) (cyclooxygenase COX-1) | COX-2 inhibition (in words) [5] | Thromboxane synthase inhibition (in words) (thromboxane A2 synthase [6]; screened at 100 μM) | melting point [°C] | IC50 (thromboxane A2 synthase [6]; reference compound, concurrent, read-out: Concurrent IC50, Thromboxane Synthetase) [nM] | IC50 (thromboxane A2 synthase [7]) [nM]
Cc1c(O)cc(C(C)(C)CCCC(C)C)cc1O [IG-10, 2-Methyl-5-(1,1,5-trimethylhexyl)resorcinol] | 17 | 0 | 100 | 0 | 9 | 0 | 6 | 0 | potent inhibitors of COX-1 | not COX-2 | significantly inhibit thromboxane synthase | 145 to 147 | – | –
O=C(O)c1ccc(OCCn2ccnc2)cc1 [Dazoxiben, reference compound] | – | – | – | – | – | – | – | – | – | – | – | – | 61 | 22
